Measurements published in patent US9683986B2, “Treatment of cancer by inhibition of the MYD88/ERK MAP kinase interaction” (CENTRE LEON BERARD, priority 2011, dated 2017).

Tested on: HCT116 p53+/+ or p53−/− tumor
Experiment: Subcutaneous HCT116 shMyD88 tumors in nude mice, doxycyclin-induced MyD88 extinction
Format: in vivo
Details: HCT116 cells stably expressing doxycyclin-inducible MyD88 shRNA, treated with doxycyclin
Method: Then we generated HCT116 p53+/+ or p53−/− stably expressing a doxycyclin-inducible MyD88 shRNA. These cell lines were subcutaneously implanted in nude mice, then the mice were treated or not with doxycyclin to induce MyD88 extinction in the tumor.

MyD88 shRNA: doxycyclin-inducible MyD88 shRNA stably expressed in HCT116 cells (sense CGGACCCTAAATCCAATAGAAA; antisense TTTCTATTGGATTTAGGGTCCT)
Tumor growth in vivo: blocks tumor growth in vivo
